Test results as given in US20240092761A1, “QUINAZOLINE COMPOUNDS AND METHODS OF USE” (IAMBIC THERAPEUTICS, INC., priority 2022, published 2024).

Legend:
[1] = target: CDK2/Cyclin E1 full length (Homo sapiens (Human), UniProt P24941); assay: CDK2/Cyclin E1 Full Length ADP-Glo Kinase Assay; type: biochemical; settings: 20 uM ATP, read-out: CDK2/ CyclinE1 IC50
Method: CDK2/Cyclin E1 Full Length ADP-Glo Kinase Assay
(§1) The purpose of CDK2/Cyclin E1 assay is to evaluate the inhibition (% inhibition and IC50 values) of small molecule inhibitors by using a Luminescent based ADP-Glo assay. CDK2/Cyclin E1 full length catalyzes the production of ADP from ATP. ADP-Glo assay monitors ADP producing biochemical reactions. ADP-Glo is performed in 2 steps upon completion of kinase reaction: a combined termination of kinase reaction and depletion of remaining ATP in the first step, and conversion of generated ADP to ATP and the newly produced ATP to light output using luciferase/luciferin reaction in the second step. The luminescent signal generated is proportional to the ADP concentration produced and is correlated with the kinase activity. CDK2/Cyclin E1 was purchased from Eurofins (Cat 14-475M). Typical reaction solutions (10 uL final reaction volume) contained 2% DMSO (f inhibitor), 10 mM MgCI2, 1 mM EGTA, 0.05% BSA, 2 mM DTT, 20 uM ATP (ATP Km=64.78 uM), 0.01% Brig-35, 0.75 uM substrate, and 0.328 nM wild-type full length CDK2/Cyclin E1 enzyme complex in 50 mM HEPES buffer at pH 7.5. The assay was initiated with the addition of ATP-containing substrate solution, following a 30-minute pre-incubation of enzyme and inhibitor at room temperature in the reaction mixture. The reaction was stopped after 90 minutes at room temperature by the addition of 10 uL of ADP-GLO Reagent. After a 90 minute incubation, 20 uL of Kinase Detection Reagent was added. Samples were incubated for 40 minutes, after which plate well luminescence was measured on a Envision microplate reader. The IC50 determinations were made from a plot of the fractional velocity as a function of inhibitor concentration fit to the 4 parameters IC50 equation.

MCF-7 cells = assay: Cell Growth Inhibition, MCF-7 (CellTiterGlo, 6 days); type: cell-based; settings: MCF-7, 6-day treatment, CellTiterGlo 2.0
Source text: (§2) MCF-7 and OVCAR-3 cells were used to evaluate the anti-proliferation activity of the CDK inhibitors. MCF-7 (ATCC, HTB-22) cells are epithelial cells from a patient with ER+ metastatic adenocarcinoma. OVCAR-3 (ATCC, HTB-161) cells were derived from malignant ascites of a patient with ovarian cancer and are known to have CCNE1 amplification. Both cell lines were maintained in RPMI media supplemented with 10% fetal bovine serum. For cell growth inhibition assay, CDK inhibitors in DMSO solution were dispensed with either Echo 655 (Beckman Coulter) or Tecan D300e (HP) into 384-well plates (Corning #3765) and the 384-well plates were UV-sterilized prior to the assay. The inhibitors were typically tested in the 10-10,000 nM concentration range with half-log serial dilutions. MCF-7 or OVCAR-3 (500 cells/30 μL/well) were added to each well using Multidrop Combi (ThermoFisher) using standard cassettes. The assay plates with cells were cultured at 37° C., 5% CO2 for 6 days. At the end of the 6-day treatment, 30 μL of CellTiterGlo 2.0 (Promega) was added to each well and the luminescent signal was read using CLARIOstar plus (BMG). The percentage of cell growth inhibition (% CGI) was calculated using the following formula % CGI=100−100×luminescencesample/luminescencecontrol. The half maximal inhibitory concentration (IC50) was determined by nonlinear curve fitting (four parameters, variable slope).

CDK6/Cyclin D3 = CDK6/Cyclin D3 (Homo sapiens (Human), UniProt Q00534); assay: CDK6/Cyclin D3 ADP-Glo Kinase Assay; type: biochemical; settings: 100 uM ATP, read-out: CDK6/ CyclinD3 IC50
Method: CDK6/Cyclin D3 ADP-Glo Kinase Assay
as §1, with “of the CDK6/Cyclin D3” for “of CDK2/Cyclin E1”, “values) in the presence” for “values)”, “assay. CDK6/Cyclin D3” for “assay. CDK2/Cyclin E1 full length”, “activity. CDK6/Cyclin D3” for “activity. CDK2/Cyclin E1”, “from Carna. […]” for “from Eurofins (Cat 14-475M). Typical reaction solutions (10 uL final reaction volume) contained 2% DMSO (f inhibitor), 10 mM MgCI2, 1 mM EGTA, 0.05% BSA, 2 mM DTT, 20 uM ATP (ATP Km=64.78 uM), 0.01% Brig-35, 0.75 uM substrate, and 0.328 nM wild-type full length CDK2/Cyclin E1 enzyme complex in 50 mM HEPES buffer at pH 7.5.”, “a 90-minute” for “a 90 minute”

OVCAR-3 cells = assay: Cell Growth Inhibition, OVCAR-3 (CellTiterGlo, 6 days); type: cell-based; settings: OVCAR-3, 6-day treatment, CellTiterGlo 2.0
Source text: as §2

CDK4/Cyclin D1 = CDK4/Cyclin D1 (Homo sapiens (Human), UniProt P11802); assay: CDK4/Cyclin D1 CHEF Assay (AQT0258 peptide); type: biochemical; settings: 200 uM ATP, read-out: CDK4/ CyclinD1 AQT IC50
Source text: CDK4/Cyclin D1 CHEF Assay
The purpose of CDK4/Cyclin Dl assay is to evaluate the inhibition (% inhibition and IC50 values) of small molecule inhibitors by using a Chelation-Enhance Fluorescence (CHEF) assay. In a CHEF assay, phosphorylation of a peptide substrate results in proportional increase in fluorescence. CHEF kinase assay use peptide substrates containing a synthetic alpha-amino acid with a side chain bearing an 8-hydroxyquinoline derivative (sulfonamido-oxide, Sox). Upon phosphorylation of a nearby serine, threonine or tyrosine and in the presence of Mg(II), the spectral properties of the Sox residue are altered, emitting 485 nm wavelength light when excited with a 360 nm wavelength light source. CDK4/Cyclin D1 catalyzes the phosphoryl transfer to the SOX-labeled substrate peptide AQT0258 from Assayquant Technologies. Typical reaction solutions contained 2% DMSO (+/−inhibitor), 10 mM MgCl2, 1 mM DTT, 200 uM ATP (ATP Km=195.2 uM), 0.012% Brig-35, 10 uM AQT0258 peptide, 0.02% BSA, 1% Glycerol, 0.55 mM EGTA, 2.5 nM CDK4/Cyclin D1 in 54 mM HEPES buffer at pH 7.5. The reaction was initiated with the addition of substrate solution, following a 30-minute pre-incubation of enzyme and inhibitor at 22° C. in the reaction mix. Reactions were allowed to proceed for 3 hrs at 22° C., followed by fluorescence read of the reaction. The IC50 determinations were made from a plot of the fractional velocity as a function of inhibitor concentration fit to the 4 parameters IC50 equation.

CDK1/Cyclin B1 = CDK1/Cyclin B1 (Homo sapiens (Human), UniProt P06493); assay: CDK1/Cyclin B1 ADP-Glo Kinase Assay; type: biochemical; settings: 80 uM ATP
Method: CDK1/Cyclin B1 ADP-Glo Kinase Assay
The purpose of CDK1/Cyclin B1 assay is to evaluate the inhibition (% inhibition and IC50 values) of small molecule inhibitors by using a Luminescent based ADP-Glo assay. CDK1/Cyclin B1 catalyzes the production of ADP from ATP. ADP-Glo assay monitors ADP producing biochemical reactions. ADP-Glo is performed in 2 steps upon completion of kinase reaction: a combined termination of kinase reaction and depletion of remaining ATP in the first step, and conversion of generated ADP to ATP and the newly produced ATP to light output using luciferase/luciferin reaction in the second step. The luminescent signal generated is proportional to the ADP concentration produced and is correlated with the kinase activity. CDK1/Cyclin B1 was purchased from Carna (Cat 04-102). Typical reaction solutions (10 uL final reaction volume) contained 2% DMSO (f inhibitor), 10 mM MgCl2, 1 mM EGTA, 0.05% BSA, 2 mM DTT, 80 uM ATP (ATP Km=78.6 uM), 0.01% Brig-35, 0.75 uM substrate, and 4.917 nM CDK1/Cyclin Bl enzyme complex in 50 mM HEPES buffer at pH 7.5. The assay was initiated with the addition of ATP-containing substrate solution, following a 30-minute pre-incubation of enzyme and inhibitor at room temperature in the reaction mixture. The reaction was stopped after 90 minutes at room temperature by the addition of 10 uL of ADP-GLO Reagent. After a 90 minute incubation, 20 uL of Kinase Detection Reagent was added. Samples were incubated for 40 minutes, after which plate well luminescence was measured on a Envision microplate reader. The IC50 determinations were made from a plot of the fractional velocity as a function of inhibitor concentration fit to the 4 parameters IC50 equation.

Sequence of CDK6/Cyclin D3 (Q00534 whole entry): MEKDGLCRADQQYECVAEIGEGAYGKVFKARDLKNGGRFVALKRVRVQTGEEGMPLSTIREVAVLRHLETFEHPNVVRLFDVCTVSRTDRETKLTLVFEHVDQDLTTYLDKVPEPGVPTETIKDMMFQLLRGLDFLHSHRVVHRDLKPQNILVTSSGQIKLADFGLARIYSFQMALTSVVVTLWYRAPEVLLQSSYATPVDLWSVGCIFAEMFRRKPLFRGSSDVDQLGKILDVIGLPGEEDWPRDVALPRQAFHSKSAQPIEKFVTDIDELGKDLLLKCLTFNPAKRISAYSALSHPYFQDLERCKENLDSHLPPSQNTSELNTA
Sequence of CDK6/Cyclin D3 (P30281 whole entry partner): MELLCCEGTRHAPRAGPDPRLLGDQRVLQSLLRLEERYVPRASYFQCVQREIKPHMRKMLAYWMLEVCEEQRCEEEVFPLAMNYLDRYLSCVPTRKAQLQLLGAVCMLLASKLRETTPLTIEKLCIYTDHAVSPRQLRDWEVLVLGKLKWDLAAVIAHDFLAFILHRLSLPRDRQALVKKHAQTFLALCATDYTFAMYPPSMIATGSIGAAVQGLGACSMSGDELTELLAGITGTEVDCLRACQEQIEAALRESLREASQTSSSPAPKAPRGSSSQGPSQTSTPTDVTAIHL
Sequence of CDK4/Cyclin D1 (P11802 whole entry): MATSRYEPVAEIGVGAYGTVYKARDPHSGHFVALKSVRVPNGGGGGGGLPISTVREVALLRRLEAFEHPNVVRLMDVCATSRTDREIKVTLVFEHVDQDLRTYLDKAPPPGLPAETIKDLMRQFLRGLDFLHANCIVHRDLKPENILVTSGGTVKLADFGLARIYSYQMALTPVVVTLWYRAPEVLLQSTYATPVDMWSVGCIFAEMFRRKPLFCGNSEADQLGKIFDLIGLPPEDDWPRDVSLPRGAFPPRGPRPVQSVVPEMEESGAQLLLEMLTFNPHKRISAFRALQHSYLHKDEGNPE
Sequence of CDK4/Cyclin D1 (P24385 whole entry partner): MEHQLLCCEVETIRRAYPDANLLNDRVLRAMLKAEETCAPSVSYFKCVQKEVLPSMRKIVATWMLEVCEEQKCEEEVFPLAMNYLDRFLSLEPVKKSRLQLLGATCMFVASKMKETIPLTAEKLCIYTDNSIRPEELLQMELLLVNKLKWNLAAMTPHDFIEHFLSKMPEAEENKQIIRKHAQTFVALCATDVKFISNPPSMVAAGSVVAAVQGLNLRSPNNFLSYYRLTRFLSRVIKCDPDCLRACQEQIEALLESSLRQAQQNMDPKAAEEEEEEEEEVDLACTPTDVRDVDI
Sequence of CDK1/Cyclin B1 (P06493 whole entry): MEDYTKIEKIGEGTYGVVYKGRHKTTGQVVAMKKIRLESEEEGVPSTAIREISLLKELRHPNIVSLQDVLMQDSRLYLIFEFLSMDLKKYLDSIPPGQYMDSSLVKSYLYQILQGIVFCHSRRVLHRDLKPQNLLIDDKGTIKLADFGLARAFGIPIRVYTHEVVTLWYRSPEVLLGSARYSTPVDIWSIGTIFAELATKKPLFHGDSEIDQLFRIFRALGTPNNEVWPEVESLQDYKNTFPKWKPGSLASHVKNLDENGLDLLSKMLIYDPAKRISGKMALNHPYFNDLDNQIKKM
Sequence of CDK1/Cyclin B1 (P14635 whole entry partner): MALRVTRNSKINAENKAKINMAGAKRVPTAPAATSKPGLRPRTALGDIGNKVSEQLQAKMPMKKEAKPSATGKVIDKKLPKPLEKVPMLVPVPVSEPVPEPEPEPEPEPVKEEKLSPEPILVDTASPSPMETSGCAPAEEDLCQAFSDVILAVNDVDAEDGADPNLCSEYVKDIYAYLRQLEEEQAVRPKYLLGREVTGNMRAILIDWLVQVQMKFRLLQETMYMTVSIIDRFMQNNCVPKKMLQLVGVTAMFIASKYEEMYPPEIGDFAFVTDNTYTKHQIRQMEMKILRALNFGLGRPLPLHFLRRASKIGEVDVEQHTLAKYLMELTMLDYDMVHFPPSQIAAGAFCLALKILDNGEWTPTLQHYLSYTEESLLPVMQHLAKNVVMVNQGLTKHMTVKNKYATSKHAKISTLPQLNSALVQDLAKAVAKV

IC50 [1] [nM] | IC50 (MCF-7 cells; Homo sapiens, MCF7, 144 h) [nM] | IC50 (CDK6/Cyclin D3) [nM] | IC50 (OVCAR-3 cells; Homo sapiens, 144 h) [nM] | IC50 (CDK4/Cyclin D1) [nM] | IC50 (CDK1/Cyclin B1) [nM] | IC50 (MCF-7 cells) [nM] | IC50 (OVCAR-3 cells) [nM] | Compound
< 200 | 500 to 2000 | < 200 | 500 to 2000 | < 200 | < 200 |  |  | CS(=O)(=O)N1CCC(Nc2ncc3cc(C(F)F)cc(N4CC(F)(F)C5(CNC5)C4)c3n2)CC1 [Example 92, 8-(8,8-difluoro-2,6-diazaspiro[3.4]octan-6-yl)-6-(difluoromethyl)-N-(1-(methylsulfonyl)piperidin-4-yl)quinazolin-2-amine]
500 to 2000 |  | 500 to 2000 |  | 200 to 500 | > 2000 | > 2000 | > 2000 | CN1CC(n2cc(Nc3ncc4cc(C(F)F)cc(N5CC6(CN(C)C6)C5)c4n3)cn2)C1 [Example 59, 6-(difluoromethyl)-8-(6-6-methyl-2,6-diazaspiro[3.3]heptan-2-yl)-N-(1-(1-methylazetidin-3-yl)-1H-pyrazol-4-yl)quinazolin-2-amine]
< 200 | 200 to 500 | < 200 | 500 to 2000 | < 200 | < 200 |  |  | CS(=O)(=O)N1CCC(Nc2ncc3cc(C(F)F)cc(C4CC5(CCN(CCC(F)(F)F)C5)C4)c3n2)CC1 (stereo not drawn) [Example 101, 6-(difluoromethyl)-N-(1-(methylsulfonyl)piperidin-4-yl)-8-(6-(3,3,3-trifluoropropyl)-6-azaspiro[3.4]octan-2-yl)quinazolin-2-amine]
< 200 | 500 to 2000 | < 200 | 500 to 2000 | < 200 | > 2000 |  |  | CN1Cc2ccc(Nc3ncc4cc(C(F)F)cc(N5CC6(CN(C)C6)C5)c4n3)cc2C1 [Example 57, 6-(difluoromethyl)-8-(6-methyl-2,6-diazaspiro[3.3]heptan-2-yl)-N-(2-methylisoindolin-5-yl)quinazolin-2-amine]
< 200 | 500 to 2000 | < 200 | 500 to 2000 | < 200 | < 200 |  |  | CS(=O)(=O)N1CCC(Nc2ncc3cccc(N4CC(F)(F)C5(CNC5)C4)c3n2)CC1 [Example 109, 8-(8,8-difluoro-2,6-diazaspiro[3.4]octan-6-yl)-N-(1-(methylsulfonyl)piperidin-4-yl)quinazolin-2-amine]
< 200 | 500 to 2000 | < 200 | > 2000 | < 200 | 500 to 2000 |  |  | FC(F)c1cc(N2CC3(CCNC3)C2)c2nc(Nc3ccc4c(c3)CN(C3CC3)C4)ncc2c1 [Example 82, N-(2-cyclopropylisoindolin-5-yl)-6-(difluoromethyl)-8-(2,6-diazaspiro[3.4]octan-2-yl)quinazolin-2-amine]
< 200 | 500 to 2000 | < 200 | 500 to 2000 | < 200 | < 200 |  |  | CS(=O)(=O)N1CCC(Nc2ncc3cccc(C4CC5(CNCCO5)C4)c3n2)CC1 (stereo not drawn) [Example 110, N-(1-(methylsulfonyl)piperidin-4-yl)-8-(5-oxa-8-azaspiro[3.5]nonan-2-yl)quinazolin-2-amine]
< 200 | 500 to 2000 | < 200 | 500 to 2000 | < 200 | < 200 |  |  | CC1(CS(=O)(=O)N2CCC(Nc3ncc4cc(C(F)F)cc(N5CC6(CCNC6)C5)c4n3)CC2)CC1 [Example 95, 6-(difluoromethyl)-N-(1-(((1-methylcyclopropyl)methyl)sulfonyl)piperidin-4-yl)-8-(2,6-diazaspiro[3.4]octan-2-yl)quinazolin-2-amine]
< 200 | 200 to 500 | < 200 | < 200 | < 200 | < 200 |  |  | O=S(=O)(c1ccc(C(F)(F)F)nc1)N1CCC(Nc2ncc3cc(C(F)F)cc(N4CC5(CCNC5)C4)c3n2)CC1 [Example 97, 6-(difluoromethyl)-8-(2,6-diazaspiro[3.4]octan-2-yl)-N-(1-((6-(trifluoromethyl)pyridin-3-yl)sulfonyl)piperidin-4-yl)quinazolin-2-amine]
